Test results published in patent publication US20020137209A1, “Methods of dissociating nongenotropic from genotropic activity of steroid receptors” (priority 2000, published 2002).

Tests used:
[1] = tested on: vertebral osteoblast and osteocyte apoptosis; assay: Osteoblast and osteocyte apoptosis in vertebrae of ovariectomized mice (TUNEL); format: in vivo; conditions: data not shown
[2] = tested on: osteocytic cell line MLO-Y4; assay: Apoptosis of MLO-Y4 osteocytic cells (trypan blue); format: cell-based
ERK1/2 = assay: ERK phosphorylation in MLO-Y4 cells (Western blot); format: cell-based; conditions: MLO-Y4 cells
Procedure: Western blot analysis. The phosphorylation status of ERK1/2 was analyzed by immunoblotting using a mouse monoclonal antibody recognizing tyrosine phosphorylated ERK1/2, or a rabbit polyclonal antibody recognizing total ERK1/2, followed by incubation with either an anti-mouse or an anti-rabbit antibody conjugated with horseradish peroxidase (Santa Cruz Biotechnology).

[3] = tested on: embryonic fibroblasts derived from Src−/− mice; assay: Apoptosis in embryonic fibroblasts from Src−/− mice; format: cell-based; conditions: ER- and AR-expressing, also lack yes and Fyn
Procedure: Cell lysates were obtained and proteins were analyzed by Western blot analysis using anti-ERK1/2 or anti-phospho-ERK1/2 (p-ERK1/2) antibodies. […] After 30 min, etoposide was added and apoptosis was assayed 6 hours later as in FIG. 1B. […] RT-PCR was performed as described in the experimental procedures. C-E. HeLa cells were transfected with Nuc-EGFP and with expression vectors encoding the full length ERα or its E domain, or the AR alone (C, left panel) or together with a dn MEK (C, right panel); a Src mutant lacking the kinase activity (Src K^−), a Src mutant lacking the SH2 domain (Src ΔSH2), or a Src mutant lacking the SH3 domain (Src ΔSH3) (D); or with ERα together with wt Shc, or the dn Shc mutants Y239F/Y240F/Y317F (Shc FFF), Y317F (Shc YYF) or Y239F/Y240F (Shc FFY) (E). Bars represent means±SD of triplicate determinations. *p<0.05 versus cells cultured without steroids, by ANOVA.
Quantification of apoptotic cells in vitro. Apoptotic cells were quantified either by trypan blue staining or by direct visualization of changes in nuclear morphology (in the case of transfected HeLa cells), as previously described (Plotkin,L. et al. (1999). J.
RT-PCR analysis of the ERs and AR in embryonic fibroblasts. […]

[4] = tested on: lactoferrin mRNA in the uterus; conditions: WT mice, E2 20 ng/g body weight for 28 days; stated as known; cited from earlier work
[5] = tested on: calvaria-derived murine osteoblastic cells; assay: Apoptosis of calvaria-derived osteoblastic cells (trypan blue); conditions: 10^−8 M steroid
ERβ = ERβ (Homo sapiens, UniProt Q92731); assay: Etoposide-induced apoptosis in HeLa cells transfected with ERβ; conditions: HeLa transfected with ERβ
[6] = tested on: HeLa cells transfected with the vector without receptor (empty vector, ev); assay: Etoposide-induced apoptosis in HeLa cells transfected with empty vector; conditions: 10^−12M to 10^−8 M
[7] = Bone remodeling in mice given doxycycline in drinking water; format: in vivo; conditions: 0.5 mg/ml in drinking water; stated as established
Procedure: Tet-F6 and wild type animals are assessed for bone mass by in vivo DEXA analysis at weekly intervals following the turning on of the transgene or the overiectomy. At the end of the 4-6 week period, both groups of animals are sacrificed and the following determinations made: a) whole body and uterine and mammary gland weights, b) length of the long bones and the width between the periosteal and endosteal bone, c) osteoblastogenesis and osteoclastogenesis in ex vivo cultures of bone marrow cells, d) prevalence of osteoblast/osteocyte and osteoclast apoptosis in sections of vertebrae, e) rate of bone formation and resorption by dynamic histomorphometry and f) compression strength of the vertebrae. An intraperitoneal injection of 30ng/g body weight of oxytetracycline-hydrochloride is administered 8 days and 2 days before sacrificing the animals for the dynamic histomorphometry analysis. It is important to note that the TET ON system is 100-1000 fold less sensitive to tetracycline than it is to doxycycline. […] Therefore, this maneuver should not influence the expression of the transgene, which at this stage will have been turned on with doxycycline.

Sequence of ERβ (Q92731 whole entry, species assumed): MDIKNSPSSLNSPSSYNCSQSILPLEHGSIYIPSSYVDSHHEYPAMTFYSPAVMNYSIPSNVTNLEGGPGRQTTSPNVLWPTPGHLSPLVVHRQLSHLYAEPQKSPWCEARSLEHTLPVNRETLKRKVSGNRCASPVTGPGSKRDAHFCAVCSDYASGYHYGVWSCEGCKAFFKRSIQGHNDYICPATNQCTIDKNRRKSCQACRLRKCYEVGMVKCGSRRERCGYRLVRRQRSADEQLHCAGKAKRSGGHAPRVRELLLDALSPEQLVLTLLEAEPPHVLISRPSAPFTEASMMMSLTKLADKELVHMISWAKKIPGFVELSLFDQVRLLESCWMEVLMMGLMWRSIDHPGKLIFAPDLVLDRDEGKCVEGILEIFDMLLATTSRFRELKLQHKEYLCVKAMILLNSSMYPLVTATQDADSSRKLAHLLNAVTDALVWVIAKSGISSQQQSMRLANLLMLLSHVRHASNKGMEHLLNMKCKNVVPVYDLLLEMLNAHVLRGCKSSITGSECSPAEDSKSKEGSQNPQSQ

| Compound | prevention of the ovariectomy-induced increase in osteoblast and osteocyte apoptosis [1] | prevention of apoptosis induced by etoposide, dexamethasone or TNFα ([2]; 10^−8 M steroid) | dose-dependent inhibition of etoposide-induced apoptosis compared with calvaria cells ([2]; not shown) | time of maximal effect on phosphorylation of ERKs (ERK1/2) [min] | anti-apoptotic effect in Src−/− fibroblasts (unlike Src+/+ wild type controls) [3] | increase of lactoferrin mRNA in the uterus [4] | prevention of apoptosis induced by etoposide, dexamethasone or TNFα [5] | prevention of etoposide-induced apoptosis (ERβ) | effect on etoposide-induced apoptosis [6] | effect on bone remodeling [7] |
| --- | --- | --- | --- | --- | --- | --- | --- | --- | --- | --- |
| C[C@]12CC[C@@H]3c4ccc(O)cc4CC[C@H]3[C@@H]1CC[C@@H]2O [E2, 17β-estradiol] | prevented | prevented apoptosis | identical results | 5 | unresponsive | approximately 5 fold | prevented apoptosis | prevented apoptosis in a dose-dependent manner | Neither E2 nor DHT (10^−12M to 10^−8 M) had an effect |  |
| C[C@H]1c2cccc(O)c2C(=O)C2=C(O)[C@]3(O)C(=O)C(C(N)=O)=C(O)[C@@H](N(C)C)[C@@H]3[C@@H](O)[C@@H]21 [doxycycline] |  |  |  |  |  |  |  |  |  | no effect on bone remodeling |
